{
  "source": "patent EP4623928A1",
  "about": "“GLP-1R ANTAGONISTS FOR THE TREATMENT OF CANCER” (Fiorina, Paolo, priority 2024, dated 2025)",
  "key": {"CD4^+ and CD8^+ T cells": {"tested_on": "CD4^+ and CD8^+ T cells", "experiment": "Cell death and proliferation of CD4+ and CD8+ T cells in splenocytes activated with anti-CD3/anti-CD28 (FACS)", "format": "cell-based, C57BL/6 mice", "settings": "anti-CD3/anti-CD28 activated splenocytes"}, "[1]": {"tested_on": "untransduced-mock and pmY-GLP-1R transduced CD3^+ T cells", "experiment": "Seahorse bioenergetic analysis, mock and pmY-GLP-1R transduced CD3+ T cells", "format": "cell-based, murine", "settings": "pmY-GLP-1R transduced vs untransduced-mock CD3^+ T cells, Exe-4 (1 nM)", "method": "Cellular Bioenergetics were analyzed using the Seahorse Extracellular Flux Analyzer Xfe96 (Agilent Technologies, Santa Clara, CA, United States), which simultaneously measures Oxygen Consumption Rate (OCR, pmolO2/min), ExtraCellular Acidification Rate (ECAR, mpH/min) and Proton Efflux Rate (PER, pmolH^+/min). For Seahorse experiments 150.000 cells either freshly isolated GLP-1R^pos or GLP-1R^neg CD3^+ T cells or activated with soluble anti-CD3/CD28 at 0.5 µg/ml each in the presence or not of Exe-4 (1 nM); in another setting untransduced mock CD3^+ T cells or pmY-GLP-1R CD3^+ T cells already activated with soluble anti-CD3/CD28 at 0.5 µg/ml each in the presence or not of Exe-4 (1 nM). Cells were resuspended in 50 µL assay medium (Agilent #103576-100 RPMI Medium pH7.4, supplemented with 10mM glucose, 2mM glutamine and 1mM Na-pyruvate) were seeded in each CellTak-precoated well of an Agilent Xfe96 Pro well plate. The cell plate was centrifuged 2 times at 40 × g (zero braking) for 1 minute. After centrifugation, 150 µL warm assay medium was gently added to each well. […]\nSeahorse parameters were normalized to cell number in each well. To this purpose, at the end of the Seahorse analysis, cell nuclei were stained with Hoechst 33342 (1 µg/mL) for about 15 min, imaged and counted with Operetta CLS™ software Harmony, as previously described (43). […]"}, "[2]": {"tested_on": "mitogen-stimulated murine splenocytes", "experiment": "IFN-γ ELISpot assay on anti-CD3/anti-CD28 stimulated splenocytes", "format": "cell-based, C57BL/6 mice", "settings": "Exe-4 at 0.1, 1 or 10 nM, soluble anti-CD3 and anti-CD28, 24 hours", "method": "An ELISPOT assay was used to measure the number of IFN-γ-producing cells according to the manufacturer's protocol (BD Biosciences) as previously performed by our group (39). To test the role of GLP-1R-driven immunity on the anti-CD3/28 non-autoimmune specific response, 1×10^6 splenocytes isolated from C57BL/6 mice were cultured in a microwell plate (BD Biosciences) coated with IFN-y capture antibody (Ab) in the presence of the following soluble anti-CD3 and anti-CD28 at 0,5ug/ml for 24 hours. Exe-4 and/or Exe-4+Exe-9-39 at concentrations of 0.1, 1 or 10 nM were added to the culture. After 24 hours, bound secondary Ab was visualized using HRP-streptavidin and the AEC substrate kit (BD Biosciences). Spots were counted using an Immunospot analyzer (Cellular Technology Ltd., Cleveland, OH) and expressed as the number of cytokine-producing spots per 1×10^6 cells. After 24hours, ELISpot plates were developed and acquired on an ELISpot reader, as previously described."}, "Cardiac allografts": {"tested_on": "Cardiac allografts", "experiment": "Murine cardiac allotransplantation (BALB/c hearts into C57BL/6 mice)", "format": "in vivo", "method": "Cardiac allografts from BALB/c mice were transplanted intra-abdominally in C57BL/6 mice using microsurgical techniques as described (31). Rejection was determined as complete cessation of cardiac contractility and was confirmed by direct visualization. Transplanted mice were intraperitoneally injected according to the following protocols: 1) Exendin-4 (Exe-4) (Amylin Pharmaceuticals, San Diego, CA - USA) 0.2pg twice/day for two weeks after transplant; 2) Exe-4 0.2pg twice/day from the day before until two weeks after transplant; 3) Exe-4 2µg twice/day from the day before until two weeks after transplant; 4) Exe-4 2µg twice/day + Exendin-9-39 (Exe-9) (Sigma-Aldrich) 2µg twice/day from the day before until two weeks after transplant; 5) Exe-4 2µg twice/day from the day before until two weeks after transplant + Rapamycin 0.1mg/die for two weeks; 6) saline 0.5ml twice/day for two weeks."}, "[3]": {"tested_on": "naive CD4^+CD25^- T cells", "experiment": "Treg induction assay", "format": "cell-based", "settings": "Exe-4 (1nM), 5 days", "method": "Naive CD4^+ CD25^- T cells were selected and activated for 5 days with 1 µg/ml of plate-bound […] anti-CD3 and anti-CD28 antibodies (BD Biosciences). Cells were cultured for 5-days in the presence of IL-2 (10ng/ml; R&D Systems) and TGFβ (2ng/mL; R&D Systems), anti-IL-4 (0.5µg/ml; PeproTech) and anti-IFNγ (2µg/mL; PeproTech) and were treated with Exe-4 (1nM) or left untreated. Then, cells were washed, pulsed for 4-hrs with phorbol myristate acetate (PMA; 50ng/mL; Sigma-Aldrich), ionomycin (500ng/mL; Sigma-Aldrich) and Golgi-stop (1.0µl/mL; BD Biosciences) and then analyzed by FACSCelesta (BD Biosciences) for the expression of Foxp3, Tbet and RoryT as previously reported (38)."}, "effector T cells": {"tested_on": "effector T cells", "experiment": "Effector T cell suppression by iTregs generated with Exe-4 (CTV dilution)", "format": "cell-based", "settings": "iTregs generated in the presence of Exe-4, ratio of 1: 4 to effector T cells, vs untreated-iTregs"}},
  "data": [
    {"substance": "Exendin-4 [Exe-4]", "values": [
      {"measurement": "cell death of CD4^+ and CD8^+ T cells", "setting": "CD4^+ and CD8^+ T cells; Exe-4 alone (1 nM)", "value": "significant increase"},
      {"measurement": "proliferation of CD4^+ and CD8^+ T cells", "setting": "CD4^+ and CD8^+ T cells; Exe-4 alone", "value": "no effect"},
      {"measurement": "ATP production from mitochondrial respiration", "setting": "[1]", "value": "significantly increased"},
      {"measurement": "OCR values", "setting": "[1]", "value": "significantly increased"},
      {"measurement": "number of IFN-y producing cells", "setting": "[2]", "value": "significantly reduced"},
      {"measurement": "graft infiltration (Hematoxylin and eosin staining)", "setting": "Cardiac allografts; day-7 heart allograft, Exe-4-treated mice", "value": "decrease of graft infiltration"},
      {"measurement": "[MST] (cardiac allograft survival)", "setting": "Cardiac allografts; first of three Exe-4 regimens listed 'respectively' (low or high dose, preceded or not with pre-treatment), untreated [MST]=7 days, p<0.01", "value": 9, "unit": "days"},
      {"measurement": "[MST] (cardiac allograft survival)", "setting": "Cardiac allografts; second of three Exe-4 regimens listed 'respectively', p<0.01 vs untreated", "value": 10, "unit": "days"},
      {"measurement": "CD4^+ and CD8^+ effector T cells", "setting": "Cardiac allografts; splenic, Exe-4-treated mice", "value": "significant decrease"},
      {"measurement": "Tregs", "setting": "Cardiac allografts; splenic, Exe-4-treated mice", "value": "no effect"},
      {"measurement": "[MST] (cardiac allograft survival)", "setting": "Cardiac allografts; third of three Exe-4 regimens listed 'respectively', p<0.01 vs untreated", "value": 10, "unit": "days"},
      {"measurement": "Ror-yT on iTregs (iTreg stability)", "setting": "[3]", "value": "significant reduction"},
      {"measurement": "Tbet on iTregs (iTreg stability)", "setting": "[3]", "value": "significant reduction"},
      {"measurement": "Treg induction (percentage of FoxP3^+CD4^+CD25^+ Tregs)", "setting": "[3]", "value": "no substantial differences"},
      {"measurement": "suppression of effector T cells by iTregs", "setting": "effector T cells", "value": "significantly reduced suppression"}
    ]}
  ]
}
